We go through 1 cell line from the supplement of paper PMC10307832.

Holding throughout (experiment): relative viability (nuclei count vs DMSO), 5 days (fraction); higher = more cells survive
Compound in the experiment “Trametinib + Palbociclib”: CC(=O)Nc1cccc(-n2c(=O)n(C3CC3)c(=O)c3c(Nc4ccc(I)cc4F)n(C)c(=O)c(C)c32)c1 [Trametinib] + CC(=O)c1c(C)c2cnc(Nc3ccc(N4CCNCC4)cn3)nc2n(C2CCCC2)c1=O [Palbociclib] (partner 0.5 µM)
The method, boiled down:
(§1)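 A single step with final 0.05% Triton X-100, 1% formaldehyde and 1 ug/ml Hoechst fixed the cells and stained nuclei 5 days after treatment. Lung cancer cell lines in 1536-well plates had been treated by pin tool the day after seeding with one drug alone or a fixed anchor-drug dose plus five library-drug doses (not always all listed) in √10 steps, and nuclei were counted on 4× images. Relative viability is the ratio of nuclei in treated wells to nuclei in vehicle wells, taken as the median of duplicate plates.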

Compound in the experiment “Trametinib + Tozasertib”: CC(=O)Nc1cccc(-n2c(=O)n(C3CC3)c(=O)c3c(Nc4ccc(I)cc4F)n(C)c(=O)c(C)c32)c1 [Trametinib] + Cc1cc(Nc2cc(N3CCN(C)CC3)nc(Sc3ccc(NC(=O)C4CC4)cc3)n2)n[nH]1 [Tozasertib] (partner 0.1 µM)
Put shortly: as §1

Compound in experiment [1]: CN1C=C(C2=CC=CC=C21)/C=C\3/C4=C(C=CC=N4)NC3=O + CS(=O)(=O)N1CCN(Cc2cc3nc(-c4cccc5[nH]ncc45)nc(N4CCOCC4)c3s2)CC1 [Pictilisib] (partner 1 µM)
Put shortly:
as §1

Compound in experiment [2]: CN1C=C(C2=CC=CC=C21)/C=C\3/C4=C(C=CC=N4)NC3=O + O=C(c1cc(Cc2n[nH]c(=O)c3ccccc23)ccc1F)N1CCN(C(=O)C2CC2)CC1 [Olaparib] (partner 8 µM)
The method, boiled down:
as §1

With UMC-11, the relative viability stood at 0.32 with Trametinib + Palbociclib (first compound 0.0025 µM); 0.333 with Trametinib + Palbociclib (first compound 0.007906 µM); 0.312 in the experiment with Trametinib + Palbociclib (first compound 0.25 µM); 0.199 in the experiment with Trametinib + Tozasertib (first compound 0.0025 µM); 0.195 with Trametinib + Tozasertib (first compound 0.007906 µM); 0.19 with Trametinib + Tozasertib (first compound 0.07906 µM). In addition, the relative viability stood at 0.211 with Trametinib + Tozasertib (first compound 0.25 µM); 0.742 in experiment [1] (first compound 0.02 µM); 0.553 in experiment [1] (first compound 0.06325 µM); 0.549 in experiment [1] (first compound 0.2 µM); 0.763 in experiment [1] (first compound 0.6325 µM); 0.875 in experiment [1] (first compound 2 µM). The relative viability in experiment [2] (first compound 0.02 µM) was determined as 0.461; in experiment [2] (first compound 0.06325 µM), 0.333; in experiment [2] (first compound 0.2 µM), 0.356; in experiment [2] (first compound 0.6325 µM), 0.381; in experiment [2] (first compound 2 µM) it was 0.47.
